The record followed here is BindingDB's records for doi:10.1016/j.bmcl.2008.08.034 (University of Illinois At Chicago, 2008).

The experiment deals with T1, 1-deoxy-D-xylulose-5-phosphate synthase (Mycobacterium tuberculosis (strain ATCC 25618 / H37Rv), UniProt P9WNS3).
T1 sequence (P9WNS3 whole entry): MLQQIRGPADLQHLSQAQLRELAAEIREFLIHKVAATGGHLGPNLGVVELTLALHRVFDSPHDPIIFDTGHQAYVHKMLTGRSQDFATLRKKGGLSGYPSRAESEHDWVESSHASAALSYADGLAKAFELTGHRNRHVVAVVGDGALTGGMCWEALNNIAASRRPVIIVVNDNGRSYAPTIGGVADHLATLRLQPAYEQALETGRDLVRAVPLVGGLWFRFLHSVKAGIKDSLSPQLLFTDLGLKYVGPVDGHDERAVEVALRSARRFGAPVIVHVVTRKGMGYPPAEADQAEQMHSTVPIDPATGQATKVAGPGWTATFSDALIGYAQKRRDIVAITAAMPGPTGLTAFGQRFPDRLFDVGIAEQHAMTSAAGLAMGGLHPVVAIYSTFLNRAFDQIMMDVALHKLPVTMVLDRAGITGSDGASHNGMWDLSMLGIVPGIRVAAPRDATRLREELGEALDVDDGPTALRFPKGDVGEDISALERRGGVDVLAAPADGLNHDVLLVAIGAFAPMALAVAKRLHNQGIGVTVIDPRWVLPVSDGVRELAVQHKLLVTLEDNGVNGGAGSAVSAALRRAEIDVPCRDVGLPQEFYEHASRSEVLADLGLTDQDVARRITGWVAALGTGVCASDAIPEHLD
Briefly: Inhibition of Mycobacterium tuberculosis cloned 1-deoxy-D-xylulose-5-phosphate synthase expressed in Escherichia coli.

The term IC50 denotes the concentration that inhibits the measured activity by half. Read a high IC50 as a need for much substance.

As to `Cc1nc2c(-c3ccc(Cl)cc3)c(C(F)(F)F)[nH]n2c(=O)c1Cc1ccccc1`, the IC50 was over 200 µM.

Regarding `CCCc1c(-c2ccccc2)nc2c(-c3ccccc3)c(C)[nH]n2c1=O` [2-methyl-3,5-diphenyl-6-propylpyrazolo[1,5-a]pyrimidin-7(4H)-one], the IC50 was found to be 17.9 µM.

As for `Cc1cc(=O)n2[nH]c(C(F)(F)F)c(-c3ccc(Br)cc3)c2n1` [3-(4-bromophenyl)-5-methyl-2-(trifluoromethyl)pyrazolo[1,5-a]pyrimidin-7(4H)-one], the IC50 was over 200 µM. Regarding `COCc1cc(O)n2nc(C)c(-c3ccc(Cl)cc3)c2n1` [3-(4-chlorophenyl)-5-(methoxymethyl)-2-methylpyrazolo[1,5-a]pyrimidin-7(4H)-one], the IC50 is over 200 µM. In turn, `COCc1cc(=O)n2[nH]cc(-c3ccc(Cl)cc3)c2n1` [3-(4-chlorophenyl)-5-(methoxymethyl)pyrazolo[1,5-a]pyrimidin-7(4H)-one] returned an IC50 of over 200 µM. For `Cc1cc(=O)n2[nH]cc(-c3ccc(Cl)cc3)c2n1` [3-(4-chlorophenyl)-5-methylpyrazolo[1,5-a]pyrimidin-7(4H)-one] the value was over 200 µM; for `O=c1cc(CCl)nc2c(-c3ccccc3)c[nH]n12` [5-(chloromethyl)-3-phenylpyrazolo[1,5-a]pyrimidin-7(4H)-one], over 200 µM.
